Results as given in the NIST ThermoML archive (doi:10.1021/je060271a).
± gives the expanded uncertainty stated by the source.

Settings: 343.16 K, Liquid, Vibrating tube method

CCCCCC(=O)OCC(COC(=O)CCCCC)(COC(=O)CCCCC)COC(=O)CCCCC [pentaerythritol tetrahexanoate] gave a mass density (27885 kPa) of 976.9 ± 1.2 kg/m3, a mass density (27922 kPa) of 976.9 ± 1.2 kg/m3 and a mass density (27953 kPa) of 976.9 ± 1.2 kg/m3. It also gave a mass density (27990 kPa) of 976.9 ± 1.2 kg/m3, a mass density (28022 kPa) of 977 ± 1.2 kg/m3 and a mass density (28053 kPa) of 977 ± 1.2 kg/m3. The mass density (28081 kPa) was 976.9 ± 1.2 kg/m3, the mass density (28111 kPa) was 977 ± 1.2 kg/m3 and the mass density (28135 kPa) was 977 ± 1.2 kg/m3. For the same compound, the mass density (28160 kPa) was 977.1 ± 1.2 kg/m3, the mass density (28189 kPa) was 977.2 ± 1.2 kg/m3 and the mass density (28213 kPa) was 977 ± 1.2 kg/m3. It also gave a mass density (28238 kPa) of 977.1 ± 1.2 kg/m3, a mass density (28267 kPa) of 977 ± 1.2 kg/m3 and a mass density (28292 kPa) of 977.1 ± 1.2 kg/m3. For the same compound, the mass density (28613 kPa) was 977.3 ± 1.2 kg/m3, the mass density (28638 kPa) was 977.3 ± 1.2 kg/m3 and the mass density (28664 kPa) was 977.3 ± 1.2 kg/m3. For the same compound, the mass density (28694 kPa) was 977.4 ± 1.2 kg/m3, the mass density (28719 kPa) was 977.5 ± 1.2 kg/m3 and the mass density (28745 kPa) was 977.4 ± 1.2 kg/m3. It also gave a mass density (28777 kPa) of 977.5 ± 1.2 kg/m3, a mass density (28799 kPa) of 977.4 ± 1.2 kg/m3 and a mass density (28830 kPa) of 977.4 ± 1.2 kg/m3. The mass density (28855 kPa) was 977.4 ± 1.2 kg/m3, the mass density (28886 kPa) was 977.6 ± 1.2 kg/m3 and the mass density (28912 kPa) was 977.6 ± 1.2 kg/m3. For the same compound, the mass density (28938 kPa) was 977.6 ± 1.2 kg/m3, the mass density (28969 kPa) was 977.3 ± 1.2 kg/m3 and the mass density (28995 kPa) was 977.6 ± 1.2 kg/m3. For the same compound, the mass density (29021 kPa) was 977.5 ± 1.2 kg/m3, the mass density (29048 kPa) was 977.7 ± 1.2 kg/m3 and the mass density (29360 kPa) was 977.8 ± 1.2 kg/m3. It also gave a mass density (29386 kPa) of 977.8 ± 1.2 kg/m3, a mass density (29419 kPa) of 977.8 ± 1.2 kg/m3 and a mass density (29533 kPa) of 977.9 ± 1.2 kg/m3. It also gave a mass density (29560 kPa) of 977.9 ± 1.2 kg/m3, a mass density (29588 kPa) of 978 ± 1.2 kg/m3 and a mass density (29620 kPa) of 977.8 ± 1.2 kg/m3. For the same compound, the mass density (29648 kPa) was 977.9 ± 1.2 kg/m3, the mass density (29680 kPa) was 978 ± 1.2 kg/m3 and the mass density (29708 kPa) was 978 ± 1.2 kg/m3. For the same compound, the mass density (29735 kPa) was 978 ± 1.2 kg/m3, the mass density (29824 kPa) was 978 ± 1.2 kg/m3 and the mass density (30097 kPa) was 978.2 ± 1.2 kg/m3. For the same compound, the mass density (30127 kPa) was 978.2 ± 1.2 kg/m3, the mass density (30157 kPa) was 978.2 ± 1.2 kg/m3 and the mass density (30193 kPa) was 978.4 ± 1.2 kg/m3. The mass density (30518 kPa) was 978.6 ± 1.2 kg/m3, the mass density (30540 kPa) was 978.4 ± 1.2 kg/m3 and the mass density (30566 kPa) was 978.7 ± 1.2 kg/m3. The mass density (30588 kPa) was 978.5 ± 1.2 kg/m3, the mass density (30610 kPa) was 978.5 ± 1.2 kg/m3 and the mass density (30637 kPa) was 978.6 ± 1.2 kg/m3. For the same compound, the mass density (30659 kPa) was 978.6 ± 1.2 kg/m3, the mass density (30682 kPa) was 978.8 ± 1.2 kg/m3 and the mass density (30704 kPa) was 978.7 ± 1.2 kg/m3. The mass density (30731 kPa) was 978.6 ± 1.2 kg/m3, the mass density (30753 kPa) was 978.7 ± 1.2 kg/m3 and the mass density (30776 kPa) was 978.7 ± 1.2 kg/m3. It also gave a mass density (30798 kPa) of 978.7 ± 1.2 kg/m3, a mass density (30825 kPa) of 978.7 ± 1.2 kg/m3 and a mass density (30848 kPa) of 978.5 ± 1.2 kg/m3. The mass density (30871 kPa) was 978.7 ± 1.2 kg/m3, the mass density (30894 kPa) was 979 ± 1.2 kg/m3 and the mass density (30917 kPa) was 978.8 ± 1.2 kg/m3. It also gave a mass density (30944 kPa) of 978.8 ± 1.2 kg/m3, a mass density (30966 kPa) of 978.8 ± 1.2 kg/m3 and a mass density (30993 kPa) of 978.8 ± 1.2 kg/m3. For the same compound, the mass density (31016 kPa) was 978.8 ± 1.2 kg/m3, the mass density (31038 kPa) was 978.8 ± 1.2 kg/m3 and the mass density (31065 kPa) was 978.9 ± 1.2 kg/m3. The mass density (31088 kPa) was 978.8 ± 1.2 kg/m3, the mass density (31111 kPa) was 978.8 ± 1.2 kg/m3 and the mass density (31134 kPa) was 978.8 ± 1.2 kg/m3. It also gave a mass density (31161 kPa) of 978.9 ± 1.2 kg/m3, a mass density (31185 kPa) of 979 ± 1.2 kg/m3 and a mass density (31208 kPa) of 978.9 ± 1.2 kg/m3. It also gave a mass density (31236 kPa) of 978.9 ± 1.2 kg/m3, a mass density (31259 kPa) of 979 ± 1.2 kg/m3 and a mass density (31282 kPa) of 979 ± 1.2 kg/m3. The mass density (31304 kPa) was 979.1 ± 1.2 kg/m3, the mass density (31332 kPa) was 979 ± 1.2 kg/m3 and the mass density (31355 kPa) was 979 ± 1.2 kg/m3. For the same compound, the mass density (31382 kPa) was 979.1 ± 1.2 kg/m3, the mass density (31405 kPa) was 979 ± 1.2 kg/m3 and the mass density (31429 kPa) was 979.1 ± 1.2 kg/m3. For the same compound, the mass density (31480 kPa) was 979.2 ± 1.2 kg/m3, the mass density (31504 kPa) was 979.1 ± 1.2 kg/m3 and the mass density (31527 kPa) was 979.2 ± 1.2 kg/m3. For the same compound, the mass density (31555 kPa) was 979.3 ± 1.2 kg/m3, the mass density (31578 kPa) was 979.3 ± 1.2 kg/m3 and the mass density (31606 kPa) was 979.3 ± 1.2 kg/m3. It also gave a mass density (31630 kPa) of 979.2 ± 1.2 kg/m3, a mass density (31654 kPa) of 979.2 ± 1.2 kg/m3 and a mass density (31682 kPa) of 979.3 ± 1.2 kg/m3. The mass density (31706 kPa) was 979.3 ± 1.2 kg/m3, the mass density (31729 kPa) was 979.3 ± 1.2 kg/m3 and the mass density (31758 kPa) was 979.3 ± 1.2 kg/m3. The mass density (31782 kPa) was 979.3 ± 1.2 kg/m3, the mass density (31806 kPa) was 979.3 ± 1.2 kg/m3 and the mass density (31830 kPa) was 979.3 ± 1.2 kg/m3. The mass density (31859 kPa) was 979.3 ± 1.2 kg/m3, the mass density (31883 kPa) was 979.4 ± 1.2 kg/m3 and the mass density (31912 kPa) was 979.4 ± 1.2 kg/m3. It also gave a mass density (31936 kPa) of 979.3 ± 1.2 kg/m3, a mass density (31960 kPa) of 979.3 ± 1.2 kg/m3 and a mass density (31984 kPa) of 979.4 ± 1.2 kg/m3. It also gave a mass density (32013 kPa) of 979.5 ± 1.2 kg/m3, a mass density (32037 kPa) of 979.6 ± 1.2 kg/m3 and a mass density (32061 kPa) of 979.4 ± 1.2 kg/m3. The mass density (32090 kPa) was 979.4 ± 1.2 kg/m3, the mass density (32114 kPa) was 979.5 ± 1.2 kg/m3 and the mass density (32144 kPa) was 979.6 ± 1.2 kg/m3. For the same compound, the mass density (32169 kPa) was 979.6 ± 1.2 kg/m3, the mass density (32193 kPa) was 979.4 ± 2 kg/m3 and the mass density (32217 kPa) was 979.6 ± 1.2 kg/m3. The mass density (32247 kPa) was 979.8 ± 1.2 kg/m3, the mass density (32272 kPa) was 979.6 ± 1.2 kg/m3 and the mass density (32296 kPa) was 979.7 ± 1.2 kg/m3. The mass density (32326 kPa) was 979.6 ± 1.2 kg/m3, the mass density (32351 kPa) was 979.7 ± 1.2 kg/m3 and the mass density (32381 kPa) was 979.7 ± 1.2 kg/m3. It also gave a mass density (32406 kPa) of 979.6 ± 1.2 kg/m3, a mass density (32431 kPa) of 979.6 ± 1.2 kg/m3 and a mass density (32456 kPa) of 979.8 ± 1.2 kg/m3. The mass density (32486 kPa) was 979.8 ± 1.2 kg/m3, the mass density (32511 kPa) was 979.7 ± 1.2 kg/m3 and the mass density (32536 kPa) was 979.7 ± 1.2 kg/m3. The mass density (32562 kPa) was 979.8 ± 1.2 kg/m3, the mass density (32592 kPa) was 979.9 ± 1.2 kg/m3 and the mass density (32617 kPa) was 979.8 ± 1.2 kg/m3. It also gave a mass density (32647 kPa) of 979.9 ± 1.2 kg/m3, a mass density (32672 kPa) of 979.8 ± 1.2 kg/m3 and a mass density (32698 kPa) of 979.8 ± 1.2 kg/m3. The mass density (32724 kPa) was 980 ± 1.2 kg/m3, the mass density (32755 kPa) was 979.9 ± 1.2 kg/m3 and the mass density (32780 kPa) was 980 ± 1.2 kg/m3. The mass density (32806 kPa) was 979.9 ± 1.2 kg/m3, the mass density (32837 kPa) was 979.9 ± 1.2 kg/m3 and the mass density (32863 kPa) was 980 ± 1.2 kg/m3. For the same compound, the mass density (32889 kPa) was 980 ± 1.2 kg/m3, the mass density (32920 kPa) was 979.8 ± 1.2 kg/m3 and the mass density (32945 kPa) was 980 ± 1.2 kg/m3. For the same compound, the mass density (32971 kPa) was 980 ± 1.2 kg/m3.
